The record followed here is patent US20240400562A1, “COMPOUNDS AND COMPOSITIONS FOR TREATING CONDITIONS ASSOCIATED WITH LPA RECEPTOR ACTIVITY” (LHOTSE, BIO, INC., priority 2021, published 2024).

Molecules are shown by their SMILES.

As a reminder, the IC50 is the concentration needed to halve the response being measured. One may read the AUC(0-t) as exposure summed from dosing to a finite time, without extrapolation to infinity. Lower therefore signals less exposure. The term Cmax denotes the maximum level reached in the sampled fluid or tissue. A word on the Tmax: it is the time at which the peak concentration occurs. The term bioavailability denotes the share of a dose that reaches the circulation, judged against a reference dose that is usually intravenous.

The target of one data set is T1, human LPA1 (Homo sapiens, UniProt Q92633).
T1 construct: expressed in transfected cells; host or cells: CHO-K1
T1 sequence (Q92633 whole entry): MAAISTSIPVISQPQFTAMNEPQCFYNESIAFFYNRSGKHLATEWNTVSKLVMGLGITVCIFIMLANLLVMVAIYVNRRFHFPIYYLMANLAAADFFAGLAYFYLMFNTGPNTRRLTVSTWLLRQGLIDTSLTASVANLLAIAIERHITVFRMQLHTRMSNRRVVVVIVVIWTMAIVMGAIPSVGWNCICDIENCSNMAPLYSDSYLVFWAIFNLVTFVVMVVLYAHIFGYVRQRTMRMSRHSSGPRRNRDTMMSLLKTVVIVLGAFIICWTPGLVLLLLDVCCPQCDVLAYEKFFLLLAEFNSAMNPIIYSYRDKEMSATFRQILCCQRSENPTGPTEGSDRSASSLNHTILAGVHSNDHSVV
Description: In vitro LPA1 calcium flux antagonist assay. In kind it is cell-based. As to conditions: CHO-K1 cells overexpressing human LPA1 and G15a, LPA challenge at EC80, FLIPR calcium mobilization. The protocol:
CHO-K1 cells overexpressing human LPA1 and G15a were seeded at a total volume of 20 μL (15000 cells/well) into Matrigel pre-coated 384-well plates (corning −3764) and incubated at 37° C. After overnight incubation, the cells were serum starved for 4 h. Assays were performed in dye loading buffer containing 1×Fluo-8 AM (AAT Bioquest, 21080) and 2.5 mM probenecid (Thermo Fisher, 36400) in HBSS/20 mM Hepes. After cell starvation, the medium was replaced with 20 μL of dye loading buffer and incubated at 37° C. for 30 min. Then 5 μL of 5× compound titrated in dye loading buffer was added to the cells and incubated for 30 min followed by LPA challenge at EC80. Calcium mobilization was measured on a FLIPR Tetra (MDS). For LPA EC80 determination, starved cells were incubated with 20 μL of dye loading buffer for 1 h, then 5 μL of 5×LPA titrated in dye loading buffer was added to the cells. Calcium signals induced by LPA was monitors on a FLIPR.
Percentage inhibition is calculated using the following formula: […]
(In general: Calcium assays in cells follow changes in intracellular calcium, usually with a dye or a luminescent sensor.)

Data set [1] is described as follows: Pharmacokinetics measurements in mice. In kind it is in vivo. As to conditions: mouse; CD1 female mice, single oral 5 mg/kg, plasma, mean. How it is done:
The PK properties of selected compounds were measured in CD1 female mice following single oral (5 mg/kg) administration.
Compounds 103 and 104 were prepared in a 1 mg/mL solution of 10% Solutol HS15 and 90%, saline for oral administrations at 5 mL/kg, respectively, and administered to 3 mice/3 groups. After dosing, blood collection was performed by dorsal metatarsal vein sampling at 0.25, 0.5, 1, 2, 4, 6, 8, 24 h, followed by centrifugation to obtain plasma. Samples were stored frozen at −80° C. prior to compound extraction and LC-MS/MS analysis. Pharmacokinetic parameters of compounds 103 and 104 in mice were calculated by standard noncompartmental modeling from the systemic plasma concentration-time profile.

A short description of data set [2]: Pharmacokinetics measurements in rats. As to conditions: SD male rats, plasma; for Cl_obs / AUC(0-t) / Cmax / Tmax: mean; for bioavailability / AUC(0-t) / Cmax / Tmax: rat; for bioavailability: PO 5 mg/kg vs IV 1 mg/kg. The data set is classed as in vivo. How it is done:
The PK properties of selected compounds were measured in SD Male rats following single oral (5 mg/kg) and Intravenous Administration (1 mg/kg).
Compounds 103 and 104 were prepared in a 1 mg/mL solution of 10% Solutol HS15 and 90% saline for oral administrations at 5 mL/kg and 0.2 mg/mL solution of 10% Solutol HS15 and 90% saline for intravenous administrations at 1 mL/kg, respectively, and administered to 3 rats per group. After dosing, blood collection was performed by Jugular vein sampling (by cannula) at 0.25, 0.5, 1, 2, 4, 6, 8, 24 h, and 0.083, 0.25, 0.5, 1, 2, 4, 8, 24 h, respectively, followed by centrifugation to obtain plasma. Samples were stored frozen at −80° C. prior to compound extraction and LC-MS/MS analysis. Pharmacokinetic parameters of compounds 103 and 104 in rats were calculated by standard noncompartmental modeling from the systemic plasma concentration-time profile.

With `CCOc1cc(C(=O)O)c2nc(C[C@H](OC3CCCC3)[C@H](O)c3ccc(C)c(OC)c3)sc2c1` [Compound 101, 2-((2S,3R)-2-(cyclopentyloxy)-3-hydroxy-3-(3-methoxy-4-methylphenyl)propyl)-6-ethoxybenzo[d]thiazole-4-carboxylic acid], the IC50 at human LPA1 is below 0.01 µM.

With `COc1cc(C(=O)O)c2nc(C[C@H](OC3CCCC3)[C@H](O)c3ccc(C(F)F)c(OC)c3)sc2c1` [Compound 102, 2-((2S,3R)-2-(cyclopentyloxy)-3-(4-(difluoromethyl)-3-methoxyphenyl)-3-hydroxypropyl)-6-methoxybenzo[d]thiazole-4-carboxylic acid], the IC50 at human LPA1 was below 0.01 µM.

For the molecule `COc1cc([C@@H](O)[C@H](Cc2nc3c(C(=O)O)cc(CO)cc3s2)OC2CCCC2)cc(OC)c1C` [Compound 103, 2-((2S,3R)-2-(cyclopentyloxy)-3-(3,5-dimethoxy-4-methylphenyl)-3-hydroxypropyl)-6-(hydroxymethyl)benzo[d]thiazole-4-carboxylic acid], the IC50 at human LPA1 was 0.01 to 0.1 µM. Further, in data set [1], the AUC(0-t) amounted to 1.64 µg·h/mL, the Cmax worked out at 0.463 µg/mL and the Tmax was 30 min. Moreover, in data set [2] (IV 1 mg/kg), the Cl_obs amounted to 0.774 L/h/kg and the AUC(0-t) turned out to be 1.33 µg·h/mL. In data set [2], the bioavailability came to 27.3%. Further, in data set [2] (PO 5 mg/kg), the AUC(0-t) was 1.79 µg·h/mL, the concentration peaked (Cmax) at 1.49 µg/mL and the Tmax is 15 min.

With `COCc1cc(C(=O)O)c2nc(C[C@H](OC3CCCC3)[C@H](O)c3cc(OC)c(C)c(OC)c3)sc2c1` [Compound 104, 2-((2S,3R)-2-(cyclopentyloxy)-3-(3,5-dimethoxy-4-methylphenyl)-3-hydroxypropyl)-6-(methoxymethyl)benzo[d]thiazole-4-carboxylic acid], on human LPA1, the IC50 was below 0.01 µM. In data set [1], the AUC(0-t) was determined as 6.95 µg·h/mL, the peak level (Cmax) was 3.84 µg/mL and the Tmax is 15 min. Besides, in data set [2] (IV 1 mg/kg), the Cl_obs was determined as 0.528 L/h/kg and the AUC(0-t) came to 1.9 µg·h/mL. The bioavailability in data set [2] turned out to be 30.3%. Further, in data set [2] (PO 5 mg/kg), the AUC(0-t) is 2.89 µg·h/mL, the Cmax was determined as 1.52 µg/mL and the Tmax was found to be 15 min.

For `CNc1cc(C(=O)O)c2nc(C[C@H](OC3CCCC3)[C@H](O)c3cc(OC)c(C)c(OC)c3)sc2c1` [Compound 105, 2-((2S,3R)-2-(cyclopentyloxy)-3-(3,5-dimethoxy-4-methylphenyl)-3-hydroxypropyl)-6-(methylamino)benzo[d]thiazole-4-carboxylic acid], on human LPA1, the IC50 was below 0.01 µM.

In the case of `COc1cc([C@@H](O)[C@H](Cc2nc3c(C(=O)O)cc(N(C)C)cc3s2)OC2CCCC2)cc(OC)c1C` [Compound 106, 2-((2S,3R)-2-(cyclopentyloxy)-3-(3,5-dimethoxy-4-methylphenyl)-3-hydroxypropyl)-6-(dimethylamino)benzo[d]thiazole-4-carboxylic acid], the IC50 at human LPA1 is below 0.01 µM.

Turning to `COc1cc([C@@H](O)[C@H](Cc2nc3c(C(=O)O)ccc(OC)c3s2)OC2CCCC2)cc(OC)c1C` [Compound 107, 2-((2S,3R)-2-(cyclopentyloxy)-3-(3,5-dimethoxy-4-methylphenyl)-3-hydroxypropyl)-7-methoxybenzo[d]thiazole-4-carboxylic acid], the IC50 on human LPA1 was below 0.01 µM.

As for `CNc1ccc(C(=O)O)n2nc(C[C@H](OC3CCCC3)[C@H](O)c3cc(OC)c(C)c(OC)c3)cc12` [Compound 108, 2-((2S,3R)-2-(cyclopentyloxy)-3-(3,5-dimethoxy-4-methylphenyl)-3-hydroxypropyl)-4-(methylamino)pyrazolo[1,5-a]pyridine-7-carboxylic acid], the IC50 on human LPA1 is 0.01 to 0.1 µM.

As to `CCOc1ccc(C(=O)O)c2nc(C[C@H](OC3CCCC3)[C@H](O)c3cc(OC)c(C)c(OC)c3)sc12` [Compound 109], the IC50 on human LPA1 was below 0.01 µM.

As for `COc1cc([C@@H](O)[C@H](Cc2cc3c(N(C)C)ccc(C(=O)O)n3n2)OC2CCCC2)cc(OC)c1C` [Compound 110], the half-maximal inhibitory concentration (IC50) at human LPA1 is above 0.1 µM.

As for `CCOc1cc(C(=O)O)c2nc(C[C@H](OC3CCCC3)[C@H](O)c3cc(OC)cc(OC)c3)sc2c1` [Compound 111], the IC50 on human LPA1 lay in the range of 0.01 to 0.1 µM.

Consider `CCOc1cc(C(=O)O)c2nc(C[C@H](OC3CCCC3)[C@H](O)c3ccc(C(F)F)c(OC)c3)sc2c1` [Compound 112], for which the IC50 on human LPA1 was in the range of 0.01 to 0.1 µM.

On to `CCOc1ccc(C(=O)O)n2nc(C[C@H](OC3CCCC3)[C@H](O)c3cc(OC)c(C)c(OC)c3)cc12` [Compound 113], for which the IC50 at human LPA1 was in the range of 0.01 to 0.1 µM.

With `CCCc1sc(C[C@H](OC2CCCC2)[C@H](O)c2cc(OC)c(C(C)=O)c(OC)c2)nc1C(C)C(=O)O` (some centres unmarked) [Compound 114], the half-maximal inhibitory concentration (IC50) at human LPA1 lay within 0.01 to 0.1 µM.
